Assay results reported in patent US20050119253A1, “Method of treating mental disorders using of D4 and 5-HT2A antagonists, inverse agonists or partial agonists” (priority 2003, published 2005).
Like-named read-outs stand apart in the source and are kept apart here. One block for each molecule: values may come before it.

Columns and labels:
Format in all cases: binding
D2 = D2 (Homo sapiens, UniProt P14416); experiment: pKi of test compounds, D2 receptor
D3 = D3 (Homo sapiens, UniProt P35462); experiment: pKi of test compounds, D3 receptor
D3, sequence (P35462 whole entry): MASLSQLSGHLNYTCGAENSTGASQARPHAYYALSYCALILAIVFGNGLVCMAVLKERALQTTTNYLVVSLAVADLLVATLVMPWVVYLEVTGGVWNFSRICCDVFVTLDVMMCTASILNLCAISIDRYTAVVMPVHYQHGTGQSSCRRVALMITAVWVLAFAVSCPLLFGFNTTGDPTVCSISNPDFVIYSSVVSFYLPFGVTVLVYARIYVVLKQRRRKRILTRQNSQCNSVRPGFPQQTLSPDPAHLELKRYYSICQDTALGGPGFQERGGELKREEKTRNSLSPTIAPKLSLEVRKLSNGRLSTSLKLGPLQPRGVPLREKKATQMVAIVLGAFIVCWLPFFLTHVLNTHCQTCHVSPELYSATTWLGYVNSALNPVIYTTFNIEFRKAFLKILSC

5HT1A = target: T1, 5HT1A (Homo sapiens, UniProt P08908); experiment: pKi of test compounds, 5HT1A receptor
T1 sequence (P08908 1-422): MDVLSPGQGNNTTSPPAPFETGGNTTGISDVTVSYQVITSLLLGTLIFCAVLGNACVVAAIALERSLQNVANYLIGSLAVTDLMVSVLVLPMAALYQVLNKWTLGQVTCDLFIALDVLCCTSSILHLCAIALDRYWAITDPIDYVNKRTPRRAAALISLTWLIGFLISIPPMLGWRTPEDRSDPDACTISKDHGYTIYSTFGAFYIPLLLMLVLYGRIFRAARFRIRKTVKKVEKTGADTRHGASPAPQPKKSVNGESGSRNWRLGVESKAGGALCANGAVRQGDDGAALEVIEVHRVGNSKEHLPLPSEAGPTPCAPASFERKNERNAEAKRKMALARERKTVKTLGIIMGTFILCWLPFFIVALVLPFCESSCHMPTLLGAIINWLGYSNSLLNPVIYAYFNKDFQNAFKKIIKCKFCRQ

5-HT2A receptor = 5-HT2A receptor (Homo sapiens, UniProt P28223); experiment: pKi of test compounds, 5-HT2A receptor
5-HT2A receptor, sequence (P28223 whole entry): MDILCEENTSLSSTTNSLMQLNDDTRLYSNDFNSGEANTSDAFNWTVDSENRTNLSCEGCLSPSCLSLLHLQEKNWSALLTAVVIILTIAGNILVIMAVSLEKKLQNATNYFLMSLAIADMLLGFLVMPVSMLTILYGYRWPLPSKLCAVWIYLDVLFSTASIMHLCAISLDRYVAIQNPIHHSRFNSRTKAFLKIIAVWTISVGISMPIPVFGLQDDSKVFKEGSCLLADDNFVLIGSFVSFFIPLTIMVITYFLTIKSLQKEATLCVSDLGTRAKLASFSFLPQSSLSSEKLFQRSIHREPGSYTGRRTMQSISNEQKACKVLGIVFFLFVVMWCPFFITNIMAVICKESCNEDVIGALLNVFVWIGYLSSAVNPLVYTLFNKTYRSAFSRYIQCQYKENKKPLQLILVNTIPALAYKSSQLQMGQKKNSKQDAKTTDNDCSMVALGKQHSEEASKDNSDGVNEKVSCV

5HT2B = 5HT2B (Homo sapiens, UniProt P41595); experiment: pKi of test compounds, 5HT2B receptor
5HT2B, sequence (P41595 whole entry, species assumed): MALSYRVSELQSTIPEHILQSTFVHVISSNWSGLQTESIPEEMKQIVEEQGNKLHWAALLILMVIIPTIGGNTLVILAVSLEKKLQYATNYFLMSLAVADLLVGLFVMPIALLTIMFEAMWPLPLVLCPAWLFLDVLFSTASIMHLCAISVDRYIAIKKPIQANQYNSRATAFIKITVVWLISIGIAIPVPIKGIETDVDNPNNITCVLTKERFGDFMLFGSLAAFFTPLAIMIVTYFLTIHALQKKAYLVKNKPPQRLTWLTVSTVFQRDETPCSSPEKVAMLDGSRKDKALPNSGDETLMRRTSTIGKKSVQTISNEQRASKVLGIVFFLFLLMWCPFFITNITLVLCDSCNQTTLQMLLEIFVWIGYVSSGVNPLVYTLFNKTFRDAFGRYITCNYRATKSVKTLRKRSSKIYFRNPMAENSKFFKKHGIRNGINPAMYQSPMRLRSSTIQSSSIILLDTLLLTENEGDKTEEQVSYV

5HT2C = target: T2, 5HT2C (Homo sapiens, UniProt P28335); experiment: pKi of test compounds, 5HT2C receptor
T2 sequence (P28335 33-458): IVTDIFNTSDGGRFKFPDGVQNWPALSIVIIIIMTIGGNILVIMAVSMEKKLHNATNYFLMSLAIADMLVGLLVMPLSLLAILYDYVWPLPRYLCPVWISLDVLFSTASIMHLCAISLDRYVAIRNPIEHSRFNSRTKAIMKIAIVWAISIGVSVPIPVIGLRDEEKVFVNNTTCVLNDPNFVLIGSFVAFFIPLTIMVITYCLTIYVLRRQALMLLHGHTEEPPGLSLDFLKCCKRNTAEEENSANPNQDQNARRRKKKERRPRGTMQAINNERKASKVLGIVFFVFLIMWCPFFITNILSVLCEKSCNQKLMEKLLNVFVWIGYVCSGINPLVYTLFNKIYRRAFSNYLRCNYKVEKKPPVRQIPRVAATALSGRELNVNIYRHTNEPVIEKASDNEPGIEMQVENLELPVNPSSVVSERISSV

5HT6rat = 5HT6rat (Rattus norvegicus, UniProt P31388); experiment: pKi of test compounds, 5HT6 receptor
5HT6rat, sequence (P31388 whole entry): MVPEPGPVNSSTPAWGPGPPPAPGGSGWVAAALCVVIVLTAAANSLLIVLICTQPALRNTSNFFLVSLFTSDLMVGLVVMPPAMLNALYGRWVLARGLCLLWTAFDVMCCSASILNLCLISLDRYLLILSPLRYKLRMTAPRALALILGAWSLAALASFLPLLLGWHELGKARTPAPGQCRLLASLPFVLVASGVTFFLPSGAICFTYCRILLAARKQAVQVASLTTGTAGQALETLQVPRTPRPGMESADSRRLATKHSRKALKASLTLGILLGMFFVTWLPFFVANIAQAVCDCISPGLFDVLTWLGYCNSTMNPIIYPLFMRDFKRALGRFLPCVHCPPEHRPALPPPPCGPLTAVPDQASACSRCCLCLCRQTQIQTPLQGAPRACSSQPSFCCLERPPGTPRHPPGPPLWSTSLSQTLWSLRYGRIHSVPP

5HT7rat = 5HT7rat (Rattus norvegicus, UniProt P32305); experiment: pKi of test compounds, 5HT7 receptor
Alpha1A = target: T3, Alpha1A (Homo sapiens, UniProt P35348); experiment: pKi of test compounds, adrenergic receptor Alpha1A
T3 sequence (P35348 1-466): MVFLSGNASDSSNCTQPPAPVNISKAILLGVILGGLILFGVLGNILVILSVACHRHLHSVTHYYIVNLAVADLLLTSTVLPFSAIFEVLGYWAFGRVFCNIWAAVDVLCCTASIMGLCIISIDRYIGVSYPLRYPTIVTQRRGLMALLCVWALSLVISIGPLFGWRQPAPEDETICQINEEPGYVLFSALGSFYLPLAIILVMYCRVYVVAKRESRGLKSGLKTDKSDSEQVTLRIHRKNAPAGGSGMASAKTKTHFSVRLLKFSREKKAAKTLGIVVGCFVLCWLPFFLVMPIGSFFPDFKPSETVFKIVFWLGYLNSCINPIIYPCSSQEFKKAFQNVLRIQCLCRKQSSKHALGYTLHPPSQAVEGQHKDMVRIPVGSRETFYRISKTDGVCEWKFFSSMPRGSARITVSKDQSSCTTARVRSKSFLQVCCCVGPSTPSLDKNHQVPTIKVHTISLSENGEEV

Alpha2A = target: T4, Alpha2A (Homo sapiens, UniProt P08913); experiment: pKi of test compounds, adrenergic receptor Alpha2A
T4 sequence (P08913 1-465): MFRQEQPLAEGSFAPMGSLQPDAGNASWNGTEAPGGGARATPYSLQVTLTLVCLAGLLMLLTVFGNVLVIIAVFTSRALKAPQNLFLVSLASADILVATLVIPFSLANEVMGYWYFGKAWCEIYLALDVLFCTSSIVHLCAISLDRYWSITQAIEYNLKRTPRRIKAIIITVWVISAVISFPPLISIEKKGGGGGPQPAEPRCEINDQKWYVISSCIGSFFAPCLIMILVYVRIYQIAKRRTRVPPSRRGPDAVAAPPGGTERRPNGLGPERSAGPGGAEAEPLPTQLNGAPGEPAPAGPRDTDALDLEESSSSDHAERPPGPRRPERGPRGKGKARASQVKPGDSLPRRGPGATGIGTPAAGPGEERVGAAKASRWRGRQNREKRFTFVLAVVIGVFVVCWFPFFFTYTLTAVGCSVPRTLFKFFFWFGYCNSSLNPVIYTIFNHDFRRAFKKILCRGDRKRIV

Alpha2B = Alpha2B (Homo sapiens, UniProt P18089); experiment: pKi of test compounds, adrenergic receptor Alpha2B
Alpha2C = target: T5, Alpha2C (Homo sapiens, UniProt P18825); experiment: pKi of test compounds, adrenergic receptor Alpha2C
T5 sequence (P18825 1-462): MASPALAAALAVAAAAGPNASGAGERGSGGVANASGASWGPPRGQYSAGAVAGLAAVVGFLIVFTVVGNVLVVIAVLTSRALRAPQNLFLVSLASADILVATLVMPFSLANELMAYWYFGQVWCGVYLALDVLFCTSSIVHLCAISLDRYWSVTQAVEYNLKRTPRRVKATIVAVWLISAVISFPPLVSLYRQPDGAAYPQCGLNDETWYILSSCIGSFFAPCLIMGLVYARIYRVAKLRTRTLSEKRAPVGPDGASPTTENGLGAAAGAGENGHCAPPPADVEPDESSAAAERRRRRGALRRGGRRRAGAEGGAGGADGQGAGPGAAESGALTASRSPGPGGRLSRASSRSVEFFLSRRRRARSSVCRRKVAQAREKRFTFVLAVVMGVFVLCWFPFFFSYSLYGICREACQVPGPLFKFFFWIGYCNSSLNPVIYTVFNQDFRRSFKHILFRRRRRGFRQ

Beta1 = Beta1 (Homo sapiens, UniProt P08588); experiment: pKi of test compounds, adrenergic receptor Beta1
Beta1, sequence (P08588 whole entry): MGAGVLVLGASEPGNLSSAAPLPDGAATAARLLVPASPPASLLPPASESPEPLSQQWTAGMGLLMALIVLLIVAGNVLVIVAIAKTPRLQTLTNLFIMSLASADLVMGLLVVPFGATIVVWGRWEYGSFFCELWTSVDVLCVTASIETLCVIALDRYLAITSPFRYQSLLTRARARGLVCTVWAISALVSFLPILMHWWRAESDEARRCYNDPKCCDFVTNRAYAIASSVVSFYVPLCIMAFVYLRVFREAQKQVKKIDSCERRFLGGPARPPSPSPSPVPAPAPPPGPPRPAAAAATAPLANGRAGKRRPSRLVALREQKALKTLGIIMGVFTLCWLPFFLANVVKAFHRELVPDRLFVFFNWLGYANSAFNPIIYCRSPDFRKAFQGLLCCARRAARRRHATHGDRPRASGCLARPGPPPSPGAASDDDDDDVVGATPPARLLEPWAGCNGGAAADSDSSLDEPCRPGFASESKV

Beta2 = Beta2 (Homo sapiens, UniProt P07550); experiment: pKi of test compounds, adrenergic receptor Beta2
Beta2, sequence (P07550 whole entry): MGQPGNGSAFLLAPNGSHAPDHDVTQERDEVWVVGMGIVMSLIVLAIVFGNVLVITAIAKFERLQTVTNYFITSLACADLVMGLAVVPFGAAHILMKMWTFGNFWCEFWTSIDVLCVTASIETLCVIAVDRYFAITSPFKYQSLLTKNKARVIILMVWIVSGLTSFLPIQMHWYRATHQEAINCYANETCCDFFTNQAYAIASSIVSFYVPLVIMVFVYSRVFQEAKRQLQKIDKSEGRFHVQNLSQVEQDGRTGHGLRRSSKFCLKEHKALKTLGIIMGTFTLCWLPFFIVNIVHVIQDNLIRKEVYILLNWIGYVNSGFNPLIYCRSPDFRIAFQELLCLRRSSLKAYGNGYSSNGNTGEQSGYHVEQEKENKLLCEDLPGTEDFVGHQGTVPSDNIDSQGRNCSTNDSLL

D1 = D1 (Homo sapiens, UniProt P21728); experiment: pKi of test compounds, D1 receptor
D1, sequence (P21728 whole entry): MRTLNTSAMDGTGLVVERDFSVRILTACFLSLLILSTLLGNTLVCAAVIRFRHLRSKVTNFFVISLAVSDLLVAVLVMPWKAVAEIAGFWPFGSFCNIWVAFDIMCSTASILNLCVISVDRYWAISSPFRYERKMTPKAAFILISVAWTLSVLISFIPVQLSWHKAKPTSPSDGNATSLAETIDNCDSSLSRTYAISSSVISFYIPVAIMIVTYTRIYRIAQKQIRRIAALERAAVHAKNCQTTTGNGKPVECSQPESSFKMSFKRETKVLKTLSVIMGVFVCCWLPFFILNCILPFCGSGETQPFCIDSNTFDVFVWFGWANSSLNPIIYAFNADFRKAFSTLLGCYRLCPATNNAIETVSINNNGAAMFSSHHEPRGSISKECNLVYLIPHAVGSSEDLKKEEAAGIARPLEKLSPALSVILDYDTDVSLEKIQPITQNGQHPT

D4 receptor = target: T6, D4 receptor (Homo sapiens, UniProt P21917); experiment: pKi of test compounds, D4 receptor
T6 sequence (P21917 1-419): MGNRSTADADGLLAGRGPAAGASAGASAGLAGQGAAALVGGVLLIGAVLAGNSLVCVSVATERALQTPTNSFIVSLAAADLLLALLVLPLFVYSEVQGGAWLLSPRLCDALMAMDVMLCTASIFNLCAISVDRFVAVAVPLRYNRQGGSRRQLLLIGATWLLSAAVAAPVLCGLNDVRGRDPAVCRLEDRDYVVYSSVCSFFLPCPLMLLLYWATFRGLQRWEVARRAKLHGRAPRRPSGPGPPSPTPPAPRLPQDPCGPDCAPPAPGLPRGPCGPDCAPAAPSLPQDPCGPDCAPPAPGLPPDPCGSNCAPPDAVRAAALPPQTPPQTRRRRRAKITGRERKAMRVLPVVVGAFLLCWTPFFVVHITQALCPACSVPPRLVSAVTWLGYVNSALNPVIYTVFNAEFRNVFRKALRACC

5HT1B = 5HT1B (Homo sapiens, UniProt P28222); experiment: pKi of test compounds, 5HT1B receptor
5HT1B, sequence (P28222 whole entry, species assumed): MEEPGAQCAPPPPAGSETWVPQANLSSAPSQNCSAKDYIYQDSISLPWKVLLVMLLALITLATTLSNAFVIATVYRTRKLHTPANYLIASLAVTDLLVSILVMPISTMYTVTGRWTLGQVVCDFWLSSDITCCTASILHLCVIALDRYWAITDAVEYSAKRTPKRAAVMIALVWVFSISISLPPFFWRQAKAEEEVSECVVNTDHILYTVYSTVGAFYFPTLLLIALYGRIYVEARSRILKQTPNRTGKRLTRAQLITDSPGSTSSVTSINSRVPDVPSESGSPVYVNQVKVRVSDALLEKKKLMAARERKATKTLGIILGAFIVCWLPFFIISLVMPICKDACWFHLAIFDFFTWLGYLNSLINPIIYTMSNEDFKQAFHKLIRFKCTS

5HT1D = 5HT1D (Homo sapiens, UniProt P28221); experiment: pKi of test compounds, 5HT1D receptor
5HT1D, sequence (P28221 whole entry, species assumed): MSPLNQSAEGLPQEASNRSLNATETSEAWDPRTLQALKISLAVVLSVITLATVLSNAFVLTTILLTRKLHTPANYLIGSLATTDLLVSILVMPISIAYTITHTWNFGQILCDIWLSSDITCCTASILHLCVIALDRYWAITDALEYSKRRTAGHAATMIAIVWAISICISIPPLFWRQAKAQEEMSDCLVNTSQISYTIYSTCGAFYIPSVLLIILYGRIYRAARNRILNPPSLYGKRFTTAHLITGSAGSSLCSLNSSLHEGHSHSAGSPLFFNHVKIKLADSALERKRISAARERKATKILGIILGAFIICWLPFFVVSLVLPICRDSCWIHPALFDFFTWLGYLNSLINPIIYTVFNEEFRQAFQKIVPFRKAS

5HT1E = 5HT1E (Homo sapiens, UniProt P28566); experiment: pKi of test compounds, 5HT1E receptor
5HT1E, sequence (P28566 whole entry, species assumed): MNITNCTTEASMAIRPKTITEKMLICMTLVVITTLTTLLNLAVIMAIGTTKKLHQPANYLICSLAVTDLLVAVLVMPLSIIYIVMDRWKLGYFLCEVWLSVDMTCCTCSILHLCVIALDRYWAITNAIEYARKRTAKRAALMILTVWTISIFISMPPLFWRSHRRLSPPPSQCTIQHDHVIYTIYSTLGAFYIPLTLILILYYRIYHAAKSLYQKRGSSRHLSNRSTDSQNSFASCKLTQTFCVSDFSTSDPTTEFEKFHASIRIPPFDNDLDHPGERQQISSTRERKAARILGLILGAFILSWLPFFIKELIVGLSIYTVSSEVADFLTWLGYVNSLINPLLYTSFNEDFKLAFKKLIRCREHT

[1] = read-out: pKi 5HT1D (converted)

D2, sequence (P14416 whole entry): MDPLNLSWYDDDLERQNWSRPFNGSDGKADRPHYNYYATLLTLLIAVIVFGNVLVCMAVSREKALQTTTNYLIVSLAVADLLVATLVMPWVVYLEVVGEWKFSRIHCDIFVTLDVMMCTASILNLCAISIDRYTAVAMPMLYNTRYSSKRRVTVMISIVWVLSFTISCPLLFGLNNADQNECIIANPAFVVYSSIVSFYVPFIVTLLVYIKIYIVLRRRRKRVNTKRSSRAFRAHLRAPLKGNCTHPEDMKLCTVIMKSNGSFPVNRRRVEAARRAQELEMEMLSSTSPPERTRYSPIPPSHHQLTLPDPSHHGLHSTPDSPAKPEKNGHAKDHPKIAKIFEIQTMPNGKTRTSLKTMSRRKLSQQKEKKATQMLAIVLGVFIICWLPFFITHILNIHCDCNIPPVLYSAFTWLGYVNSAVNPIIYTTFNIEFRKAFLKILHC

SMILES: O=C(CC1CCN(CCOc2cccc3c2OCCO3)C1)c1ccc(F)cc1 (stereo not shown) [S16924]
pKi D2 (D2): 7-8 | pKi D3 (D3): 7-8 | pKi 5HT1A (5HT1A): 8-9 | pKi 5-HT2A (5-HT2A receptor): >9 | pKi 5HT2B (5HT2B): 8-9 | pKi 5HT2C (5HT2C): 7-8 | pKi 5HT6rat (5HT6rat; rat): 7-8 | pKi 5HT7rat (5HT7rat): 7-8 | pKi Alpha1A (Alpha1A): 8-9 | pKi Alpha2A (Alpha2A): 6-7 | pKi Alpha2B (Alpha2B): 7-8 | pKi Alpha2C (Alpha2C): 6-7 | pKi Beta1 (Beta1): <6 | pKi Beta2 (Beta2): <6

SMILES: O=C1NCCN1CCN1CCC(c2cn(-c3ccc(F)cc3)c3ccc(Cl)cc23)CC1 [Sertindole]
Ki (D1): 10 to 100 nM | Ki (5HT1B): 10 to 100 nM | Ki (5HT1D; [1]): 10 to 100 nM | Ki (Alpha1A): < 1 nM

SMILES: COC(=O)[C@@H]1[C@H]2C[C@H]3c4[nH]c5ccccc5c4CCN3C[C@@H]2CC[C@@H]1O [Yohimbine]
Ki (D2; read-out: pKi D2 (converted)): 100 to 1000 nM | Ki (5HT1D): 10 to 100 nM

SMILES: O=C1Cc2cc(CCN3CCN(c4nsc5ccccc45)CC3)c(Cl)cc2N1 [Ziprasidone]
Ki (5HT1A): 1 to 10 nM | Ki (5HT1B): < 1 nM | Ki (5HT1D; [1]): 1 to 10 nM | Ki (5HT1E): 100 to 1000 nM | Ki (5HT2B): 1 to 10 nM | Ki (5HT6rat): 10 to 100 nM | Ki (5HT7rat): 1 to 10 nM | Ki (Beta1): > 1000 nM | Ki (Beta2): > 1000 nM

SMILES: CN(C)CCOC1=Cc2ccccc2Sc2ccc(Cl)cc21 [Zotepine]
Ki (5HT1B): 10 to 100 nM | Ki (5HT1D; [1]): 10 to 100 nM | Ki (5HT1E): 100 to 1000 nM

Second part, the molecule after the results:

pKi D1 (D1): 7-8 | pKi D2 (D2): 7-8 | pKi D3 (D3): 6-7 | pKi D4 (D4 receptor; D4): 8-9 | pKi 5HT1A (5HT1A): 7-8 | pKi 5-HT2A (5-HT2A receptor): 8-9 | pKi 5HT2C (5HT2C): 6-7 | pKi Alpha1A (Alpha1A): >9 | pKi Alpha2A (Alpha2A): 6-7
SMILES: O=C1N(CCN2CCC(c3noc4cc(F)ccc34)CC2)CCN1c1ccccc1 [S18327]

pKi D1 (D1): 6-7 | pKi D2 (D2): 7-8 | pKi D3 (D3): >9 | pKi 5HT1A (5HT1A): <6 | pKi 5HT1B (5HT1B): 6-7 | pKi 5HT1D (5HT1D): 6-7 | pKi 5HT2B (5HT2B): 6-7 | pKi 5HT2C (5HT2C): 7-8 | pKi Alpha1A (Alpha1A): 6-7 | pKi Alpha2A (Alpha2A): <6
SMILES: N#Cc1ccc2c(c1)[C@H]1CN(CCCCNC(=O)c3ccc(-c4ccccc4)cc3)C[C@@H]1CO2 [S33084]

Ki (5HT1E): > 1000 nM
SMILES: OCCOCCN1CCN(C2=Nc3ccccc3Sc3ccccc32)CC1 [Seroquel]

Ki (D2): 1 to 10 nM | Ki (D3): 1 to 10 nM | Ki (D4 receptor): 1 to 10 nM | Ki (5-HT2A receptor): < 1 nM | Ki (Alpha1A): < 1 nM | Ki (Alpha2A): 100 to 1000 nM
SMILES: O=C1CC2(CCCC2)CC(=O)N1CCCCN1CCN(c2nsc3ccccc23)CC1 [Tiospirone]
